What was measured:
[1] = Redox potential of treated process water; format: physicochemical
Excerpt: (§1) The aqueous solution according to the invention containing chlorine dioxide (prepared with the persulfate-chlorite process) was metered discontinuously into the process water of the first pasteurization plant in an amount so as to keep the redox potential of the process water in the range of 400 to 800 mV. When the redox potential in the process water fell below 400 to 450 mV, the aqueous solution according to the invention containing chlorine dioxide was metered in until a redox potential between 750 and 800 mV was reached.
Concurrently. the redox potential of the pasteurization plant in which chlorine dioxide was metered into the process water was measured at the time of sampling for determining the germ count.
In 5 measurements within the examination period. the redox potential of the process water treated with bronopol always amounted to more than 1000 mV.

[2] = test system: microorganisms; experiment: Germ count in process water of pasteurization plants (Plate Count Agar); format: cell-based
Excerpt: In order to examine the influence of chlorine dioxide on the microbial quality of process water, the process water of a first pasteurization plant was mixed with the aqueous solution according to the invention containing chlorine dioxide, and the process water of a second pasteurization plant was mixed with a biocide.
as §1
In contrast, bronopol was added to the process water of the second pasteurization plant on a time-controlled basis (every three days) in such an amount that the concentration of bronopol in the process water was […]. […]
The germ count in 1 ml of sample was determined using “Plate Count Agar” (PCA), with the appropriate amount of process water being applied to PCA plates. One plate at a time was incubated at 37° C., and one plate at a time was incubated at 28° C. The evaluation of the germ count took place after 2 and 5 days, respectively.

For `O=[N+]([O-])C(Br)(CO)CO` [bronopol, reference compound], the “redox potential of the process water” value ([1]; 5 measurements within the examination period) was “more than 1000 mV”, the “Germ count/ml process water” value ([2]; 1 Mar. 2021) was greater than 10000 mL⁻¹ and the “Germ count/ml process water” value ([2]; 2 Feb. 2021) was 81600 mL⁻¹. The “Germ count/ml process water” value ([2]; 4 Feb. 2021) was greater than 10000 mL⁻¹, the “Germ count/ml process water” value ([2]; 4 Jan. 2021) was 3600 mL⁻¹ and the “Germ count/ml process water” value ([2]; 5 Apr. 2021) was greater than 10000 mL⁻¹. For the same compound, the “Germ count/ml process water” value ([2]; 7 Jan. 2021) was 4200 mL⁻¹, the “Germ count/ml process water” value ([2]; 8 Apr. 2021) was greater than 10000 mL⁻¹ and the “Germ count/ml process water” value ([2]; 8 Feb. 2021) was greater than 10000 mL⁻¹. For the same compound, the “Germ count/ml process water” value ([2]; 11 Feb. 2021) was greater than 10000 mL⁻¹, the “Germ count/ml process water” value ([2]; 11 Jan. 2021) was 3400 mL⁻¹ and the “Germ count/ml process water” value ([2]; 12 Apr. 2021) was greater than 10000 mL⁻¹. For the same compound, the “Germ count/ml process water” value ([2]; 12 Mar. 2021) was greater than 10000 mL⁻¹, the “Germ count/ml process water” value ([2]; 14 Jan. 2021) was greater than 10000 mL⁻¹ and the “Germ count/ml process water” value ([2]; 15 Apr. 2021) was greater than 10000 mL⁻¹. The “Germ count/ml process water” value ([2]; 15 Mar. 2021) was greater than 10000 mL⁻¹, the “Germ count/ml process water” value ([2]; 17 Feb. 2021) was 76000 mL⁻¹ and the “Germ count/ml process water” value ([2]; 18 Feb. 2021) was greater than 10000 mL⁻¹. The “Germ count/ml process water” value ([2]; 18 Jan. 2021) was greater than 10000 mL⁻¹, the “Germ count/ml process water” value ([2]; 18 Mar. 2021) was greater than 10000 mL⁻¹ and the “Germ count/ml process water” value ([2]; 19 Apr. 2021) was greater than 10000 mL⁻¹. For the same compound, the “Germ count/ml process water” value ([2]; 21 Jan. 2021) was 60200 mL⁻¹, the “Germ count/ml process water” value ([2]; 22 Feb. 2021) was greater than 10000 mL⁻¹ and the “Germ count/ml process water” value ([2]; 22 Mar. 2021) was greater than 10000 mL⁻¹. The “Germ count/ml process water” value ([2]; 23 Apr. 2021) was greater than 10000 mL⁻¹, the “Germ count/ml process water” value ([2]; 25 Jan. 2021) was greater than 10000 mL⁻¹ and the “Germ count/ml process water” value ([2]; 25 Mar. 2021) was greater than 10000 mL⁻¹. The “Germ count/ml process water” value ([2]; 26 Apr. 2021) was greater than 10000 mL⁻¹, the “Germ count/ml process water” value ([2]; 26 Feb. 2021) was 51000 mL⁻¹ and the “Germ count/ml process water” value ([2]; 28 Jan. 2021) was 54400 mL⁻¹. The “Germ count/ml process water” value ([2]; 29 Apr. 2021) was greater than 10000 mL⁻¹ and the “Germ count/ml process water” value ([2]; 29 Mar. 2021) was greater than 10000 mL⁻¹.
With `[O][Cl+][O-]` [chlorine dioxide] the “Redox potential in process water” value ([1]; 1 Mar. 2021) was 720 mV, the “Redox potential in process water” value ([1]; 2 Feb. 2021) was 710 mV and the “Redox potential in process water” value ([1]; 4 Feb. 2021) was 550 mV. For the same compound, the “Redox potential in process water” value ([1]; 4 Jan. 2021) was 810 mV, the “Redox potential in process water” value ([1]; 5 Apr. 2021) was 770 mV and the “Redox potential in process water” value ([1]; 7 Jan. 2021) was 740 mV. The “Redox potential in process water” value ([1]; 8 Apr. 2021) was 640 mV, the “Redox potential in process water” value ([1]; 8 Feb. 2021) was 800 mV and the “Redox potential in process water” value ([1]; 11 Feb. 2021) was 750 mV. For the same compound, the “Redox potential in process water” value ([1]; 11 Jan. 2021) was 710 mV, the “Redox potential in process water” value ([1]; 12 Apr. 2021) was 450 mV and the “Redox potential in process water” value ([1]; 12 Mar. 2021) was 580 mV. The “Redox potential in process water” value ([1]; 14 Jan. 2021) was 700 mV, the “Redox potential in process water” value ([1]; 15 Apr. 2021) was 800 mV and the “Redox potential in process water” value ([1]; 15 Mar. 2021) was 760 mV. The “Redox potential in process water” value ([1]; 17 Feb. 2021) was 780 mV, the “Redox potential in process water” value ([1]; 18 Feb. 2021) was 740 mV and the “Redox potential in process water” value ([1]; 18 Jan. 2021) was 620 mV. The “Redox potential in process water” value ([1]; 18 Mar. 2021) was 780 mV, the “Redox potential in process water” value ([1]; 19 Apr. 2021) was 780 mV and the “Redox potential in process water” value ([1]; 21 Jan. 2021) was 540 mV. The “Redox potential in process water” value ([1]; 22 Feb. 2021) was 510 mV, the “Redox potential in process water” value ([1]; 22 Mar. 2021) was 660 mV and the “Redox potential in process water” value ([1]; 23 Apr. 2021) was 560 mV. For the same compound, the “Redox potential in process water” value ([1]; 25 Jan. 2021) was 420 mV, the “Redox potential in process water” value ([1]; 25 Mar. 2021) was 490 mV and the “Redox potential in process water” value ([1]; 26 Apr. 2021) was 630 mV. For the same compound, the “Redox potential in process water” value ([1]; 26 Feb. 2021) was 640 mV, the “Redox potential in process water” value ([1]; 28 Jan. 2021) was 790 mV and the “Redox potential in process water” value ([1]; 29 Apr. 2021) was 680 mV. For the same compound, the “Redox potential in process water” value ([1]; 29 Mar. 2021) was 430 mV, the “Germ count/ml process water” value ([2]; 1 Mar. 2021) was 940 mL⁻¹ and the “Germ count/ml process water” value ([2]; 2 Feb. 2021) was 7040 mL⁻¹. The “Germ count/ml process water” value ([2]; 4 Feb. 2021) was 800 mL⁻¹, the “Germ count/ml process water” value ([2]; 4 Jan. 2021) was 280 mL⁻¹ and the “Germ count/ml process water” value ([2]; 5 Apr. 2021) was 160 mL⁻¹. For the same compound, the “Germ count/ml process water” value ([2]; 7 Jan. 2021) was 3840 mL⁻¹, the “Germ count/ml process water” value ([2]; 8 Apr. 2021) was 2800 mL⁻¹ and the “Germ count/ml process water” value ([2]; 8 Feb. 2021) was 80 mL⁻¹. For the same compound, the “Germ count/ml process water” value ([2]; 11 Feb. 2021) was 100 mL⁻¹, the “Germ count/ml process water” value ([2]; 11 Jan. 2021) was 3480 mL⁻¹ and the “Germ count/ml process water” value ([2]; 12 Apr. 2021) was 6560 mL⁻¹. The “Germ count/ml process water” value ([2]; 12 Mar. 2021) was 9200 mL⁻¹, the “Germ count/ml process water” value ([2]; 14 Jan. 2021) was 3120 mL⁻¹ and the “Germ count/ml process water” value ([2]; 15 Apr. 2021) was 700 mL⁻¹. For the same compound, the “Germ count/ml process water” value ([2]; 15 Mar. 2021) was 100 mL⁻¹, the “Germ count/ml process water” value ([2]; 17 Feb. 2021) was 200 mL⁻¹ and the “Germ count/ml process water” value ([2]; 18 Feb. 2021) was 1120 mL⁻¹. The “Germ count/ml process water” value ([2]; 18 Jan. 2021) was 4160 mL⁻¹, the “Germ count/ml process water” value ([2]; 18 Mar. 2021) was 60 mL⁻¹ and the “Germ count/ml process water” value ([2]; 19 Apr. 2021) was 140 mL⁻¹. The “Germ count/ml process water” value ([2]; 21 Jan. 2021) was 2100 mL⁻¹, the “Germ count/ml process water” value ([2]; 22 Feb. 2021) was 1740 mL⁻¹ and the “Germ count/ml process water” value ([2]; 22 Mar. 2021) was 8000 mL⁻¹. The “Germ count/ml process water” value ([2]; 23 Apr. 2021) was 2020 mL⁻¹, the “Germ count/ml process water” value ([2]; 25 Jan. 2021) was 4800 mL⁻¹ and the “Germ count/ml process water” value ([2]; 25 Mar. 2021) was 10000 mL⁻¹. For the same compound, the “Germ count/ml process water” value ([2]; 26 Apr. 2021) was 4500 mL⁻¹, the “Germ count/ml process water” value ([2]; 26 Feb. 2021) was 2340 mL⁻¹ and the “Germ count/ml process water” value ([2]; 28 Jan. 2021) was 500 mL⁻¹. The “Germ count/ml process water” value ([2]; 29 Apr. 2021) was 3700 mL⁻¹, the “Germ count/ml process water” value ([2]; 29 Mar. 2021) was 10000 mL⁻¹ and the “germ count compared with conventional biocide (in words)” value ([2]; redox potential kept at 400 to 800 mV, 4 months) was “lower germ count”.

Source: patent publication US20240279089A1, “METHOD FOR CONTROLLING THE GROWTH OF MICROORGANISMS” (RED BULL GMBH, priority 2021, published 2024)
